Results taken from ChEMBL document CHEMBL1201862, “PubChem BioAssay data set” (2004).
The source made the active and inactive calls. Rule as the data show it, for most assays here: actives have a measured EC50 and inactives only a lower limit.

Columns and labels:
[1] = target: T1, Fatty acid synthase (Homo sapiens, UniProt P49327); experiment: FAS thioesterase domain inhibitors, dose response, biochemical, kinetic fluorescence intensity (AID 624326); format: functional;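 also: rate of fluorescence rise from hydrolysis of a fluorogenic O-methyl fluorescein ester substrate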
T1 sequence (P49327 whole entry, the tested form may be a part): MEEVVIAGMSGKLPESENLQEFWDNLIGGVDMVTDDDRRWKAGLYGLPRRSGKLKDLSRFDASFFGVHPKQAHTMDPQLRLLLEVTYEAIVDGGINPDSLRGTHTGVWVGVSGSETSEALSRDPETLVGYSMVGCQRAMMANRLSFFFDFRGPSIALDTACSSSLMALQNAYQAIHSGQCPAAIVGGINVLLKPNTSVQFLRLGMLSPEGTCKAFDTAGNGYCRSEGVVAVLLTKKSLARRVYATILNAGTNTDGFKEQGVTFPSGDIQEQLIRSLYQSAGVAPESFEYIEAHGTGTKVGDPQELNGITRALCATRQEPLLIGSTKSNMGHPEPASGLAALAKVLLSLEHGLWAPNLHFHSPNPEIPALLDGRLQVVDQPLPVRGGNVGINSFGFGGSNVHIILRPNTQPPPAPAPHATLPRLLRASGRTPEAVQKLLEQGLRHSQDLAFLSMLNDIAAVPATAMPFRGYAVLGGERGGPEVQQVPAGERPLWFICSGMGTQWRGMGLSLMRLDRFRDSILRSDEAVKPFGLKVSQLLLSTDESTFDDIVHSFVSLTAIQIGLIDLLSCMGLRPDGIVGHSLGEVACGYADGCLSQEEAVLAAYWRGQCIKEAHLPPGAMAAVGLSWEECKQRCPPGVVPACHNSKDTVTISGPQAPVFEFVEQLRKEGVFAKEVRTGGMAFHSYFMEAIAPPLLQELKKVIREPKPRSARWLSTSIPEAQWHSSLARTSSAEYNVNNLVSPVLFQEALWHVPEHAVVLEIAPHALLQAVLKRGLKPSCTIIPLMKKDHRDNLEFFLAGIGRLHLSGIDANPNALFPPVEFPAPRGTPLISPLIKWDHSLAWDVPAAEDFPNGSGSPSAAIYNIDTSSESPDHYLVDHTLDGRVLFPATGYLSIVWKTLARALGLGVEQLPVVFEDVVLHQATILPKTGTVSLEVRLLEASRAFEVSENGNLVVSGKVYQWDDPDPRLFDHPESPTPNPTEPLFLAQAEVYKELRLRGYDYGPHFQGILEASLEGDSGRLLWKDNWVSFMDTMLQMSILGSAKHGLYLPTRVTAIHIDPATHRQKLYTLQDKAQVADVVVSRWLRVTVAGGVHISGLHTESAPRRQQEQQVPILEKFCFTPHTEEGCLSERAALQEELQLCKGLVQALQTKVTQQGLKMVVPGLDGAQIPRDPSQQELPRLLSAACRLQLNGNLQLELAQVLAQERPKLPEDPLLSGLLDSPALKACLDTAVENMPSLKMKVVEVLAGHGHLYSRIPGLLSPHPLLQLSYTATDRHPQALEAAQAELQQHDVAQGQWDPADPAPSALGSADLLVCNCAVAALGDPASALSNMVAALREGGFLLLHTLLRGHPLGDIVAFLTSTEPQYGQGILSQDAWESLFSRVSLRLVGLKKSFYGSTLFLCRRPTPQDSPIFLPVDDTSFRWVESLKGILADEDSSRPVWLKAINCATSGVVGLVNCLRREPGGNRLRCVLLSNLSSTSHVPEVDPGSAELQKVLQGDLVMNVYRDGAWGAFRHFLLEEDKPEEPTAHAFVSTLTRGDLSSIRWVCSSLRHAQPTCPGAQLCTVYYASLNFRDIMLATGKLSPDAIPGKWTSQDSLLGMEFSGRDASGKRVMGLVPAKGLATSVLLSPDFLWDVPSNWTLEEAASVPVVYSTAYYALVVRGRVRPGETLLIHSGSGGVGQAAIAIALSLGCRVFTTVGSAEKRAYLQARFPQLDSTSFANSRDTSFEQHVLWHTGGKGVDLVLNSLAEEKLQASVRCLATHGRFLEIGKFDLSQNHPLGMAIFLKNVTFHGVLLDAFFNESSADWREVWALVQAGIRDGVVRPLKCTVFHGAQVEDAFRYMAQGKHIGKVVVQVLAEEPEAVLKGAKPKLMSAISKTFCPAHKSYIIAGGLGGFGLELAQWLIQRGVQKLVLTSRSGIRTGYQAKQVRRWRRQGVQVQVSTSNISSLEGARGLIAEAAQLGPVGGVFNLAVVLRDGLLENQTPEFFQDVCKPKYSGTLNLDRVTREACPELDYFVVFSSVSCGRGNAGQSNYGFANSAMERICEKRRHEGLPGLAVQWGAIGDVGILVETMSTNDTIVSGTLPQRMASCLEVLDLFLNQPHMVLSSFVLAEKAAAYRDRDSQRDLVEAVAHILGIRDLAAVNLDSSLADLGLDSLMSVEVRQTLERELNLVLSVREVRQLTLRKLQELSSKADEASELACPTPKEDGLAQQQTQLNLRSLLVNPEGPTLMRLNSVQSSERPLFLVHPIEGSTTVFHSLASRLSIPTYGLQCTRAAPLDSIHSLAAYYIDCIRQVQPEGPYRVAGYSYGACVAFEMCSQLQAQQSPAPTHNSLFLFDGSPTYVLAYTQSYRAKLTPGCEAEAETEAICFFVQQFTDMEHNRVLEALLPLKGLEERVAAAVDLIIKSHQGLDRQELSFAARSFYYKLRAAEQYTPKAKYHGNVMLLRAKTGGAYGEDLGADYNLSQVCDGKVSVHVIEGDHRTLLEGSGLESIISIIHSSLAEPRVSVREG

[2] = target: T1, Fatty acid synthase; experiment: FAS thioesterase domain inhibitors, dose response, biochemical, endpoint fluorescence intensity, uHTS hits (AID 624327); format: functional;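 also: fluorescence from hydrolysis of an O-methyl fluorescein acyl ester substrate by the enzyme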
[3] = target: T2, Calpain-2 catalytic subunit (Sus scrofa, UniProt P43367); experiment: pig calpain II inhibitor potency, dose response, biochemical, fluorogenic peptide substrate (AID 1420); format: functional
T2 sequence (P43367 whole entry): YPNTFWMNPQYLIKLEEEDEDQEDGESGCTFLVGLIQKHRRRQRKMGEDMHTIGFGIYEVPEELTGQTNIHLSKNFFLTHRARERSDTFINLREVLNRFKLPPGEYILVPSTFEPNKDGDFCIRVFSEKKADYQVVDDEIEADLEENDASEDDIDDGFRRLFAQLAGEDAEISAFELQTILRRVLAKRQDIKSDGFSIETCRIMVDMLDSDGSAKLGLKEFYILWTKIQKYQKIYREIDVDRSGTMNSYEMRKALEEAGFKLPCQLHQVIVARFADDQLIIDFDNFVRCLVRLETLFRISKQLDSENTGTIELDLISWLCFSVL

[4] = target: T3, Heat shock factor protein 1 (Mus musculus, UniProt P38532); experiment: inhibition of MG132-induced HSE-luciferase signal, confirmation, cell-based, NIH3T3, luminescence, dose retest (AID 2382); format: functional;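 also: NIH3T3 fibroblasts with HSF1-driven luciferase reporter stressed by proteasome inhibitor MG132; luminescence from HSF1-driven luciferase expression after 8 hours of MG132 stress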
T3 sequence (P38532 whole entry): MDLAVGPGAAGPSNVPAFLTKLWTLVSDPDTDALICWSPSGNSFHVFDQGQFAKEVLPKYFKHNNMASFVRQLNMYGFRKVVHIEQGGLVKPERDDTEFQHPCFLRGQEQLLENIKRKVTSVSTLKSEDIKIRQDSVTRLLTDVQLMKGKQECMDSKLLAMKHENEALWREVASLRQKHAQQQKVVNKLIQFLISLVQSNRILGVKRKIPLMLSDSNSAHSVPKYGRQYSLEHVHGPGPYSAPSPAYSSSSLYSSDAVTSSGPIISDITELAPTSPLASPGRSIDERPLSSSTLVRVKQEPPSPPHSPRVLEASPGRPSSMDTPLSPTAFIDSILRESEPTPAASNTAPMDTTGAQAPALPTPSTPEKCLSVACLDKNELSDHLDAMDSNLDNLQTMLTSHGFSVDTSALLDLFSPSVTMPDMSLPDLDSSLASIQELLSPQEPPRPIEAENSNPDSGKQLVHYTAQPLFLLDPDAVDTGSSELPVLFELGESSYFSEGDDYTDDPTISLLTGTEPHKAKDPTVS

[5] = growth suppression of beta-catenin-knockout colon cells, dose response, cell-based, HCT116, human colon tumor (AID 1045); format: functional;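 also: HCT116 colon tumor cells with beta catenin knocked out; cells exposed to compound for 60 hours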
[6] = growth suppression of PTEN-null colon cells, dose response, cell-based, HCT116 PTEN knockout (AID 1047); format: functional;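 also: HCT116 colon tumor cells with PTEN knocked out; cells exposed to compound for 60 hours before readout; potency for loss of cell viability measured by luminescence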
[7] = Luminescence Cell-Based Dose Confirmation HTS to Identify Inhibitors of Platelet Dense Granule Release. [Related pubchem assays: 1663 (Primary HTS), 1678 (Summary of Project)]; format: functional
[8] = target: Luciferin 4-monooxygenase (Photinus pyralis, UniProt P08659); experiment: firefly luciferase enzyme inhibitors, dose response, biochemical, luminescence (AID 1891)
Chain of Luciferin 4-monooxygenase (P08659 whole entry): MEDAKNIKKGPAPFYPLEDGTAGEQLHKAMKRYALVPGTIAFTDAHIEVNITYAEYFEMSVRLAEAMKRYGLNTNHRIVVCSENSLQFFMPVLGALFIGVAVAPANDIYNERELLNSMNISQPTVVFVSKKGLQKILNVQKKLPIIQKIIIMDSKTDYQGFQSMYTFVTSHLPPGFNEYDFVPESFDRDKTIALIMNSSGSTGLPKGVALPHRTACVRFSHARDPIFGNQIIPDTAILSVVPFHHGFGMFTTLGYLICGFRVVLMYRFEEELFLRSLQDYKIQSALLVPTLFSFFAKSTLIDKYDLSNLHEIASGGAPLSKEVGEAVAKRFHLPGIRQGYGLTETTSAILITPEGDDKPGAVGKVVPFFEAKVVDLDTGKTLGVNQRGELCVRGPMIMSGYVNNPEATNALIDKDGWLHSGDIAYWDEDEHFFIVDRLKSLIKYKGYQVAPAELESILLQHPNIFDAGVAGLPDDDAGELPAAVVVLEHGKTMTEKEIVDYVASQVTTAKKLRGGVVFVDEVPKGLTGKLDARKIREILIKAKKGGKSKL

[9] = test system: Streptococcus; experiment: Group A Streptococcus viability loss, dose response, counter-screen for streptokinase expression inhibitor project, luminescence, BacTiterGlo (AID 1915); format: functional, organism-based;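 also: potency for reduction of bacterial viability or growth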
[10] = test system: Streptococcus sp. 'group A'; experiment: growth inhibition of control SK(-) GAS strain, dose response, counter-screen for streptokinase expression inhibitor project, luminescence, kanamycin, BacTiterGlo, confirmation (AID 1900); format: functional, organism-based
[11] = target: T4, Streptokinase A (Streptococcus pyogenes serotype M1, UniProt P10520); experiment: S. pyogenes streptokinase expression inhibitors, potency, dose response, plasminogen activation absorbance, OD405 (AID 1914); format: functional, Streptococcus pyogenes M1 GAS;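 also: secreted streptokinase activity via plasminogen activation per viability signal from cell pellet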
T4 sequence (P10520 whole entry): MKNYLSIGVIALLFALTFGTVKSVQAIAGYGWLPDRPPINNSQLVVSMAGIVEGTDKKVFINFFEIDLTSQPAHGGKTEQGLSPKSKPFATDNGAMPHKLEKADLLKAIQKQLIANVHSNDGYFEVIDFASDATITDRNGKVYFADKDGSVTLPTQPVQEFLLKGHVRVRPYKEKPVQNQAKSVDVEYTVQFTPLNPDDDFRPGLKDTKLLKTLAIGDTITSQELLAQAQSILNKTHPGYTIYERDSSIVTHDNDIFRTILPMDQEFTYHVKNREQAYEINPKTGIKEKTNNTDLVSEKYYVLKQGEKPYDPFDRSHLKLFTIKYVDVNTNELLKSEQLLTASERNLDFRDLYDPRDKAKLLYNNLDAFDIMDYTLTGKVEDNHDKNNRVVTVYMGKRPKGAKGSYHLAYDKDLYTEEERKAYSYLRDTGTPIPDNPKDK

[12] = target: T5, Polyadenylate-binding protein 1 (Homo sapiens, UniProt P11940); experiment: PABP1 MLLE–PAM2 binding inhibitor potency, dose response, biochemical, fluorescence polarization, FITC-PAM2 peptide (AID 602259); format: functional; conditions: read-out: IC50_Mean
T5 sequence (P11940 whole entry): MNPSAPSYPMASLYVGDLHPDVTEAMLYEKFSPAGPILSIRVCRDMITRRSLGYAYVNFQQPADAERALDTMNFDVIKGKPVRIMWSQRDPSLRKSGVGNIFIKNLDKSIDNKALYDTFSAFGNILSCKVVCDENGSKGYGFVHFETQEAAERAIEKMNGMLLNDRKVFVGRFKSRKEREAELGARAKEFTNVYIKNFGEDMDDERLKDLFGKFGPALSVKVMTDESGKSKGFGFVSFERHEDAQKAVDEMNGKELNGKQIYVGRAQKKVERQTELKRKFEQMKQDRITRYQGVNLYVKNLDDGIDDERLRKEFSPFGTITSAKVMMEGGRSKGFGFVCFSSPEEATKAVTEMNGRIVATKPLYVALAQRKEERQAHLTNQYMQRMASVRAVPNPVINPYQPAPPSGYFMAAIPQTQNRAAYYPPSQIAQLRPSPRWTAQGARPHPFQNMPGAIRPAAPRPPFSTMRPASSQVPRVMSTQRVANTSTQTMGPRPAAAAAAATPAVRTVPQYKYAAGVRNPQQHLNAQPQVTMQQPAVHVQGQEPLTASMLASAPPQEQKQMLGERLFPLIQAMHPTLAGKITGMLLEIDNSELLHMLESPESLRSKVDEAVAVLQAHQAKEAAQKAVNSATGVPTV

[13] = target: T5, Polyadenylate-binding protein 1; experiment: PABP1 MLLE–PAM2 interaction inhibitors, dose response, miRNA deadenylation inhibitor project, biochemical, fluorescence polarization, Cy5-PAM2 peptide, secondary (AID 602260); format: functional; conditions: read-out: IC50_Mean
[14] = target: T6, Corticotropin-releasing factor receptor 2/Corticotropin-releasing factor-binding protein (Homo sapiens, UniProt P24387+Q13324); experiment: activators of CRF receptor 2 with binding protein – uHTS hits, confirmation (AID 602473); format: functional; conditions: read-out: EC50_Mean
T6 sequence (Q13324 whole entry): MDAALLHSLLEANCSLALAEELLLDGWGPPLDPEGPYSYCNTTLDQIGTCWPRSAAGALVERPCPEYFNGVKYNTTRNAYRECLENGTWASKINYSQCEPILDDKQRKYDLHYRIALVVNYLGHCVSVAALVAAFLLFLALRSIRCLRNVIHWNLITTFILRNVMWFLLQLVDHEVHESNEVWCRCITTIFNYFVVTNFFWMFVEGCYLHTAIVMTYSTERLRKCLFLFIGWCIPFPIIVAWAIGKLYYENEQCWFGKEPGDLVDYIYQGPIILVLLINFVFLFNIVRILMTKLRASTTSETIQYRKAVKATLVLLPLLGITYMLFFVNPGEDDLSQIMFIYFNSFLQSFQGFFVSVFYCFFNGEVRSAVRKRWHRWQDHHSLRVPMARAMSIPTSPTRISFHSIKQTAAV
T6 sequence (P24387 whole entry): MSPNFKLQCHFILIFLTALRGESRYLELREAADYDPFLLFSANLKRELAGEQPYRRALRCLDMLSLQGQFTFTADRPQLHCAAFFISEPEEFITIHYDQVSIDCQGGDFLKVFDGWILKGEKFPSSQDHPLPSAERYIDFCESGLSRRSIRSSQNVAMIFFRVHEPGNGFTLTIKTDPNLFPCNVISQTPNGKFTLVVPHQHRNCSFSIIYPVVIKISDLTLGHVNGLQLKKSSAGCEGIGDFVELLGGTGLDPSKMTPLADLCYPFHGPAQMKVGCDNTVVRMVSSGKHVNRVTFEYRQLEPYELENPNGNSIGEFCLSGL

[15] = inhibitors of firefly luciferase expression or activity, dose response, H4 neuroglioma cells, luminescence (AID 1990); format: functional, cell-based
[16] = inhibitors of SNCA 5'UTR-driven reporter translation, confirmation, H4 neuroglioma cells, luminescence (AID 1988); format: functional, cell-based
[17] = Luminescence Cell-Based Dose Response HTS to Identify Inhibitors of 5'UTR Stem-Loop Driven Prion Protein mRNA Translation in H4 Neuroglioblastoma Cells. [Related pubchem assays: 1827 (Project Summary), 1813 (Primary HTS)]; format: functional
[18] = target: T7, RNA-binding protein pos-1 (Caenorhabditis elegans, UniProt G5EF15); experiment: inhibitors of POS-1/mex-3 RNA binding, dose response, biochemical, fluorescence polarization (AID 1964);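 also: purified POS-1 fused to maltose binding protein made in E. coli; potency of compounds blocking POS-1 binding to fluorescent RNA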
T7 sequence (G5EF15 whole entry): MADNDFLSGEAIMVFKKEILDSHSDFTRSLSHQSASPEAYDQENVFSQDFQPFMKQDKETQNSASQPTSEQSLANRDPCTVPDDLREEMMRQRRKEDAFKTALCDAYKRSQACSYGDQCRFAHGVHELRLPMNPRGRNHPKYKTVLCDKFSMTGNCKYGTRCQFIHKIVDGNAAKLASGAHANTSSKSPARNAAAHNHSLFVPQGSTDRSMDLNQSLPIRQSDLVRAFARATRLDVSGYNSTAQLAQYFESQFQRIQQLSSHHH

[19] = target: T8, Zinc finger protein mex-5 (Caenorhabditis elegans, UniProt Q9XUB2); experiment: MEX-5/TCR-2 RNA interaction inhibitors, dose response, biochemical, C. elegans, fluorescence polarization (AID 1960)
T8 sequence (Q9XUB2 whole entry): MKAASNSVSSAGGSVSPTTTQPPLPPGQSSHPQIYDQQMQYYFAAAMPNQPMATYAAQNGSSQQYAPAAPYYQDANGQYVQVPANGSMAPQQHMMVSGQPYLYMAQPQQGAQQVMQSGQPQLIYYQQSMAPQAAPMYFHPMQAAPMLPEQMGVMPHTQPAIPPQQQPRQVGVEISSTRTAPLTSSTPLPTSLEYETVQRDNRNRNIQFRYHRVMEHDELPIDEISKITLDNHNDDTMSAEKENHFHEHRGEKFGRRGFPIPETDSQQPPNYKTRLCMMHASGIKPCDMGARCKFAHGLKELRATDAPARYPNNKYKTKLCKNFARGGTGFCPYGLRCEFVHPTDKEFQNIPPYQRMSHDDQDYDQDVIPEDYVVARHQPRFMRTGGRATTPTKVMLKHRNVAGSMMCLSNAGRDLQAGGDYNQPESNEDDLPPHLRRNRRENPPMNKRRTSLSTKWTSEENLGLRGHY

[20] = target: Cytochrome P450 2C9 (Homo sapiens, UniProt P11712)
Chain of Cytochrome P450 2C9 (P11712 whole entry): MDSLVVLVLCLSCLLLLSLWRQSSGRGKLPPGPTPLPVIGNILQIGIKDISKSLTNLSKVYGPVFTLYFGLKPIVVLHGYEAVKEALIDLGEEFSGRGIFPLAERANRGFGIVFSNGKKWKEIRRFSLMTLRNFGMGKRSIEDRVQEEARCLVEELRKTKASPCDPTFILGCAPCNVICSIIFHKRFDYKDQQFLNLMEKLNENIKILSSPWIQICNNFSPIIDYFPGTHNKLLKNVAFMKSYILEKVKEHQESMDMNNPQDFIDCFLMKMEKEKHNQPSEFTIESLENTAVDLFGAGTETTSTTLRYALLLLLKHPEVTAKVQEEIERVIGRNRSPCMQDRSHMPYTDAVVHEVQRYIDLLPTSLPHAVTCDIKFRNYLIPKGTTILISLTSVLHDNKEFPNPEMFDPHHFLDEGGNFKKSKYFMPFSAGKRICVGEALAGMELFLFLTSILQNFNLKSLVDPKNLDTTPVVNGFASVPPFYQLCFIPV

O=C(COC(=O)C1CCCCC1)Nc1cc([N+](=O)[O-])ccc1F
IC50 [1]: 8.3 µM (active) | IC50 [2]: 7.45 µM (active) | IC50 [3]: > 50 µM (not active)

CCCNC(=O)N1CCCC(C(=O)c2cccc(Cl)c2)C1 (stereo not drawn)
EC50 [4]: > 195 µM (not active)

COc1ccc(-c2nn(-c3ccccc3)cc2/C=C/C(=O)O)cc1[N+](=O)[O-]
IC50 [1]: 13.6 µM (active) | IC50 [2]: 12.1 µM (active)

CCOC(=O)c1cc2c(=O)n3cccc(C)c3nc2n(C)c1=N
EC50 [5]: 4.97 µM (active) | EC50 [6]: 6.72 µM (active)

CCn1cc(C(=O)NCc2ccc(Cl)cc2)c(=O)c2cc(S(=O)(=O)N(C)C)ccc21
IC50 [1]: 8.74 µM (active) | IC50 [2]: 9.03 µM (active)

Cc1cc(=O)oc2cc(OCCSCCN3CCCC3)ccc12
EC50 [7]: > 112 µM (not active) | EC50 [8]: > 112 µM (not active)

CCN1C(=O)C(CC(=O)Nc2ccc(OC)cc2)N(Cc2ccc3c(c2)OCO3)C1=S (stereo not drawn)
EC50 [4]: > 195 µM (not active)

Nc1c(NC(=O)CC[n+]2ccccc2)cccc1[N+](=O)[O-]
EC50 [4]: 7.93 µM (active)

CC(C)(C)N(Cc1ccccc1)C(=O)COC(=O)c1cccc([N+](=O)[O-])c1
IC50 [1]: 2.97 µM (active) | IC50 [2]: 4.39 µM (active)

CCCNS(=O)(=O)c1ccc(OCC(=O)N2CCN(C)CC2)cc1
EC50 [4]: > 195 µM (not active)

CCCc1nc2sc3c(c2c(=O)n1NC(=O)CCC(=O)OC)CCCC3
EC50 [7]: > 112 µM (not active) | EC50 [8]: > 112 µM (not active)

CCOc1ccccc1NC(=O)COC(=O)Cc1cccs1
EC50 [7]: > 112 µM (not active) | EC50 [8]: > 112 µM (not active)

O=C(CSc1ncnc2c1nnn2Cc1ccccc1)NC1CCCCC1
IC50 [1]: 23.6 µM (inactive) | IC50 [2]: 24.3 µM (inactive)

CCOc1ccc(NC(=O)c2ccc3c(=O)n(-c4ccc(OC)cc4OC)c(=S)[nH]c3c2)cc1
EC50 [4]: > 195 µM (not active) | EC50 [9]: 12.4 µM (active) | EC50 [10]: 7.86 µM (active) | EC50 [11]: > 150 µM (not active)

CN(C(=O)COC(=O)c1cc(O)nc2ccccc12)c1c(N)n(Cc2ccccc2)c(=O)[nH]c1=O
EC50 [4]: > 195 µM (not active)

N#C/C(=C\c1ccccc1[N+](=O)[O-])C(=O)NC1CCCCC1
IC50 [12]: > 66 µM (inactive) | IC50 [13]: > 66 µM (inactive) | EC50 [14]: > 53 µM (inactive)

Cc1cc(=O)oc(C)c1C(=O)NCCNC(=O)c1c(C)cc(=O)oc1C
EC50 [7]: 28.8 µM (active) | EC50 [8]: > 112 µM (not active)

Cc1ccc(Cl)cc1N1CCN(C(=O)c2cn(C)c(=O)c3c2c2ccccc2n3C)CC1
EC50 [5]: 4.17 µM (active) | EC50 [15]: 12.4 µM (active) | EC50 [16]: 11.4 µM (active) | EC50 [6]: 3.36 µM (active) | EC50 [17]: 20.5 µM (active) | EC50 [9]: 22.8 µM (active) | EC50 [10]: 3.51 µM (active) | EC50 [11]: 9.73 µM (active)

Cn1cccc1/C=C1\C(=O)NC(=O)N(CCC2=CCCCC2)C1=O
EC50 [5]: 82.1 µM (active) | EC50 [18]: 230 µM (inconclusive) | EC50 [19]: 35.6 µM (inconclusive) | EC50 [6]: 67.2 µM (active)

Cc1ccc(C)c(S(=O)(=O)N2CCN(C(=O)Cc3ccc(S(=O)(=O)N4CCOCC4)s3)CC2)c1
IC50 [1]: 7.72 µM (active) | IC50 [2]: 6.49 µM (active)

CC(=O)c1cccc(-c2ccnc3c2CC(C(=O)Nc2ccc(C(C)C)cc2)O3)c1 (stereo not drawn)
IC50 [1]: 6.77 µM (active) | IC50 [2]: 10.8 µM (active)

CCC(/N=c1\cc(-c2ccc(OC)c(OC)c2)oc2ccc(C)cc12)C(=O)O (stereo not drawn)
EC50 [4]: > 195 µM (not active)

Cc1cnn(-c2cc(N/N=C/c3ccccc3F)ncn2)c1
EC50 [5]: 21 µM (active) | EC50 [6]: 12.7 µM (active) | AC50 [20]: 1.26 µM (inconclusive)
